Here are results for ten molecules from patent US20210395262A1, “INHIBITORS OF HUMAN IMMUNODEFICIENCY VIRUS REPLICATION” (ViiV HEALTHCARE UK (NO.5) LIMITED, priority 2018, published 2021).

One data set concerns recombinant NL4-3 virus. The data set can be described thus: HIV cell culture assay (antiviral activity, luciferase readout in MT-2 cells). As to conditions: Human immunodeficiency virus 1, NL43, MT2. It counts as cell-based. The method, then:
HIV cell culture assay—MT-2 cells, 293T cells and the proviral DNA clone of NL4-3 virus were obtained from the […] AIDS Research and Reference Reagent Program. MT-2 cells were propagated in RPMI 1640 media supplemented with 10% heat inactivated fetal bovine serum (FBS), […] penicillin G and up to 100 units/mL streptomycin. The 293T cells were propagated in DMEM media supplemented with 10% heat inactivated FBS, […] penicillin G and […] streptomycin. A recombinant NL4-3 proviral clone, in which a section of the nef gene was replaced with the Renilla luciferase gene, was used to make the reference virus used in these studies. The recombinant virus was prepared through transfection of the recombinant NL4-3 proviral clone into 293T cells using Transit-293 Transfection Reagent from Mirus Bio LLC (Madison, Wis.). Supernatent was harvested after 2-3 days and the amount of virus present was titered in MT-2 cells using luciferase enzyme activity as a marker by measuring luciferase enzyme activity. Luciferase was quantitated using the EnduRen Live Cell Substrate from Promega (Madison, Wis.). Antiviral activities of compounds toward the recombinant virus were quantified by measuring luciferase activity in MT-2 cells infected for 4-5 days with the recombinant virus in the presence of serial dilutions of the compound.
The 50% effective concentration (EC50) was calculated by using the exponential form of the median effect equation where (Fa)=1/[1+(ED50/drug conc.)m] (Johnson V A, Byington R T. Infectivity Assay. In Techniques in HIV Research. ed. Aldovini A, Walker B D. 71-76. New York: Stockton Press. 1990). The 50% inhibitory concentration (EC50) was calculated by using the exponential form of the median effect equation where percent inhibition=1/[1+(EC50/drug concentration)m], where m is a parameter that reflects the slope of the concentration-response curve.

A short description of data set [1]: Compound cytotoxicity, XTT-based colorimetric assay. It counts as cell-based. To be noted: human; uninfected MT2 cells, day 4, XTT; read-out: CC50. The method, then:
Compound cytotoxicity and the corresponding CC50 values were determined using the same protocol as described in the antiviral assay except that uninfected cells were used. Cytotoxicity was assessed on day 4 in uninfected MT2 cells by using a XTT (2,3-bis[2-Methoxy-4-nitro-5-sulfophenyl]-2H-tetrazolium-5-carboxyanilide inner salt)-based colorimetric assay (Sigma-Aldrich, St Louis, Mo.).

In general, EC50 refers to the midpoint of the concentration-response curve. The CC50 is the concentration at which the toxic effect on the cells reaches its halfway point. Consider `Cn1nc(NS(C)(=O)=O)c2c(Cl)ccc(-n3c([C@H](Cc4cc(F)cc(F)c4)NC(=O)Cn4nc(C(F)F)c5c4C(F)(F)[C@@H]4C[C@H]54)nc4cc(N5CCS(=O)(=O)CC5)ccc4c3=O)c21` (atropisomer, axis not shown; (P)) [Example 13, N—((S)-1-((3P)-3-(4-chloro-1-methyl-3-(methylsulfonamido)-1H-indazol-7-yl)-7-(1,1-dioxidothiomorpholino)-4-oxo-3,4-dihydroquinazolin-2-yl)-2-(3,5-difluorophenyl)ethyl)-2-((3bS,4aR)-3-(difluoromethyl)-5,5-difluoro-3b,4,4a,5-tetrahydro-1H-cyclopropa[3,4]cyclopenta[1,2-c]pyrazol-1-yl)acetamide], for which, in the data set with recombinant NL4-3 virus, the EC50 was found to be 0.468 nM. Further, the CC50 at 4 days in data set [1] is greater than 10000 nM.

In the case of `Cn1nc(NS(C)(=O)=O)c2c(Cl)ccc(-n3c([C@H](Cc4cc(F)cc(F)c4)NC(=O)Cn4nc(C(F)F)c5c4C(F)(F)[C@@H]4C[C@H]54)nc4cc(N5CCCCC5)ccc4c3=O)c21` (atropisomer, axis not shown; (P)) [Example 14, N—((S)-1-((3P)-3-(4-chloro-1-methyl-3-(methylsulfonamido)-1H-indazol-7-yl)-4-oxo-7-(piperidin-1-yl)-3,4-dihydroquinazolin-2-yl)-2-(3,5-difluorophenyl)ethyl)-2-((3bS,4aR)-3-(difluoromethyl)-5,5-difluoro-3b,4,4a,5-tetrahydro-1H-cyclopropa[3,4]cyclopenta[1,2-c]pyrazol-1-yl)acetamide], the EC50 with recombinant NL4-3 virus was determined as 0.242 nM. Besides, in data set [1], the CC50 at 4 days was greater than 1000 nM.

Take `C[C@@H]1CN(c2ccc3c(=O)n(-c4ccc(Cl)c5c(NS(C)(=O)=O)nn(C)c45)c([C@H](Cc4cc(F)cc(F)c4)NC(=O)Cn4nc(C(F)F)c5c4C(F)(F)[C@@H]4C[C@H]54)nc3c2)C[C@H](C)O1` (atropisomer, axis not shown; (P)) [Example 15, N—((S)-1-((3P)-3-(4-chloro-1-methyl-3-(methylsulfonamido)-1H-indazol-7-yl)-7-((2S,6R)-2,6-dimethylmorpholino)-4-oxo-3,4-dihydroquinazolin-2-yl)-2-(3,5-difluorophenyl)ethyl)-2-((3bS,4aR)-3-(difluoromethyl)-5,5-difluoro-3b,4,4a,5-tetrahydro-1H-cyclopropa[3,4]cyclopenta[1,2-c]pyrazol-1-yl)acetamide]: the EC50 with recombinant NL4-3 virus was 0.035 nM. For the same molecule, the CC50 at 4 days in data set [1] was greater than 10000 nM.

Turning to `C[C@@H]1CN(c2ccc3c(=O)n(-c4ccc(Cl)c5c(NS(C)(=O)=O)nn(C)c45)c([C@H](Cc4cc(F)cc(F)c4)NC(=O)Cn4nc(C(F)F)c5c4C(F)(F)[C@@H]4C[C@H]54)nc3c2)C[C@H](C)N1C` (atropisomer, axis not shown; (P)) [Example 16, N—((S)-1-((3P)-3-(4-chloro-1-methyl-3-(methylsulfonamido)-1H-indazol-7-yl)-4-oxo-7-((3S,5R)-3,4,5-trimethylpiperazin-1-yl)-3,4-dihydroquinazolin-2-yl)-2-(3,5-difluorophenyl)ethyl)-2-((3bS,4aR)-3-(difluoromethyl)-5,5-difluoro-3b,4,4a,5-tetrahydro-1H-cyclopropa[3,4]cyclopenta[1,2-c]pyrazol-1-yl)acetamide], the EC50 in the data set with recombinant NL4-3 virus stood at 0.08 nM. The CC50 at 4 days in data set [1] was greater than 1000 nM.

Consider `Cn1nc(NS(C)(=O)=O)c2c(Cl)ccc(-n3c([C@H](Cc4cc(F)cc(F)c4)NC(=O)Cn4nc(C(F)F)c5c4C(F)(F)[C@@H]4C[C@H]54)nc4cc(N5CCCOCC5)ccc4c3=O)c21` (atropisomer, axis not shown; (P)) [Example 17, N—((S)-1-((3P)-3-(4-chloro-1-methyl-3-(methylsulfonamido)-1H-indazol-7-yl)-7-(1,4-oxazepan-4-yl)-4-oxo-3,4-dihydroquinazolin-2-yl)-2-(3,5-difluorophenyl)ethyl)-2-((3bS,4aR)-3-(difluoromethyl)-5,5-difluoro-3b,4,4a,5-tetrahydro-1H-cyclopropa[3,4]cyclopenta[1,2-c]pyrazol-1-yl)acetamide], for which, in the data set on recombinant NL4-3 virus, the EC50 turned out to be 0.069 nM. For the same molecule, in data set [1], the CC50 at 4 days was greater than 1000 nM.

As for `Cn1nc(NS(C)(=O)=O)c2c(Cl)ccc(-n3c([C@H](Cc4cc(F)cc(F)c4)NC(=O)Cn4nc(C(F)F)c5c4C(F)(F)[C@@H]4C[C@H]54)nc4cc(N5CCC5)ccc4c3=O)c21` (atropisomer, axis not shown; (P)) [Example 18, N—((S)-1-(7-(azetidin-1-yl)-(3P)-3-(4-chloro-1-methyl-3-(methylsulfonamido)-1H-indazol-7-yl)-4-oxo-3,4-dihydroquinazolin-2-yl)-2-(3,5-difluorophenyl)ethyl)-2-((3bS,4aR)-3-(difluoromethyl)-5,5-difluoro-3b,4,4a,5-tetrahydro-1H-cyclopropa[3,4]cyclopenta[1,2-c]pyrazol-1-yl)acetamide], in the data set on recombinant NL4-3 virus, the concentration for a half-maximal effect (EC50) was found to be 0.066 nM. In data set [1], the CC50 at 4 days was greater than 1000 nM.

`Cn1nc(NS(C)(=O)=O)c2c(Cl)ccc(-n3c([C@H](Cc4cc(F)cc(F)c4)NC(=O)Cn4nc(C(F)F)c5c4C(F)(F)[C@@H]4C[C@H]54)nc4cc(N5CCCC5)ccc4c3=O)c21` (atropisomer, axis not shown; (P)) [Example 19, N—((S)-1-((3P)-3-(4-chloro-1-methyl-3-(methylsulfonamido)-1H-indazol-7-yl)-4-oxo-7-(pyrrolidin-1-yl)-3,4-dihydroquinazolin-2-yl)-2-(3,5-difluorophenyl)ethyl)-2-((3bS,4aR)-3-(difluoromethyl)-5,5-difluoro-3b,4,4a,5-tetrahydro-1H-cyclopropa[3,4]cyclopenta[1,2-c]pyrazol-1-yl)acetamide]: the EC50 in the data set on recombinant NL4-3 virus was 0.222 nM. In addition, the CC50 at 4 days in data set [1] is greater than 1000 nM.

For the molecule `Cn1nc(NS(C)(=O)=O)c2c(Cl)ccc(-n3c([C@H](Cc4cc(F)cc(F)c4)NC(=O)Cn4nc(C(F)F)c5c4C(F)(F)[C@@H]4C[C@H]54)nc4cc(NCc5ccccc5)ccc4c3=O)c21` (atropisomer, axis not shown; (P)) [Example 20, N—((S)-1-(7-(benzylamino)-(3P)-3-(4-chloro-1-methyl-3-(methylsulfonamido)-1H-indazol-7-yl)-4-oxo-3,4-dihydroquinazolin-2-yl)-2-(3,5-difluorophenyl)ethyl)-2-((3bS,4aR)-3-(difluoromethyl)-5,5-difluoro-3b,4,4a,5-tetrahydro-1H-cyclopropa[3,4]cyclopenta[1,2-c]pyrazol-1-yl)acetamide], the EC50 in the data set with recombinant NL4-3 virus was 0.38 nM. Also, in data set [1], the CC50 at 4 days was greater than 1000 nM.

On to `Cn1nc(NS(C)(=O)=O)c2c(Cl)ccc(-n3c([C@H](Cc4cc(F)cc(F)c4)NC(=O)Cn4nc(C(F)F)c5c4C(F)(F)[C@@H]4C[C@H]54)nc4cc(N5CC6(COC6)C5)ccc4c3=O)c21` (atropisomer, axis not shown; (P)) [Example 21, N—((S)-1-((3P)-3-(4-chloro-1-methyl-3-(methylsulfonamido)-1H-indazol-7-yl)-4-oxo-7-(2-oxa-6-azaspiro[3.3]heptan-6-yl)-3,4-dihydroquinazolin-2-yl)-2-(3,5-difluorophenyl)ethyl)-2-((3bS,4aR)-3-(difluoromethyl)-5,5-difluoro-3b,4,4a,5-tetrahydro-1H-cyclopropa[3,4]cyclopenta[1,2-c]pyrazol-1-yl)acetamide], for which, in the data set with recombinant NL4-3 virus, the EC50 came to 0.064 nM. The CC50 at 4 days in data set [1] was greater than 500 nM.

`Cn1nc(NS(C)(=O)=O)c2c(Cl)ccc(-n3c([C@H](Cc4cc(F)cc(F)c4)NC(=O)Cn4nc(C(F)F)c5c4C(F)(F)[C@@H]4C[C@H]54)nc4cc(N5CCC(O)CC5)ccc4c3=O)c21` (atropisomer, axis not shown; (P)) [Example 24, N—((S)-1-((3P)-3-(4-chloro-1-methyl-3-(methylsulfonamido)-1H-indazol-7-yl)-7-(4-hydroxypiperidin-1-yl)-4-oxo-3,4-dihydroquinazolin-2-yl)-2-(3,5-difluorophenyl)ethyl)-2-((3bS,4aR)-3-(difluoromethyl)-5,5-difluoro-3b,4,4a,5-tetrahydro-1H-cyclopropa[3,4]cyclopenta[1,2-c]pyrazol-1-yl)acetamide]: the EC50 in the data set with recombinant NL4-3 virus was 0.118 nM. Moreover, the CC50 at 4 days in data set [1] is greater than 500 nM.
